Measured values as given in ChEMBL document CHEMBL4219192, “Structural analysis and antioxidant activity of the glycoside from Imperial Chrysanthemum” (Bioorg Med Chem Lett, 2018).
Calls of active or inactive are those of the source. The rule behind the calls is not given here.

Experiments:
Format in all cases: functional
[1] = Antioxidant activity assessed as inhibition of superoxide radical generation up to 0.6 mg/ml after 4 mins by pyrogallol autoxidation method relative to control
[2] = Antioxidant activity assessed as ABTS radical scavenging activity at 2.5 mg/ml after 6 mins relative to control
[3] = Antioxidant activity assessed as DPPH radical scavenging activity up to 0.6 mg/ml after 30 mins by absorbance method relative to control
[4] = Antioxidant activity assessed as hydroxyl radical scavenging activity at 2.5 mg/ml preincubated for 20 mins followed by salicylic acid addition measured after 60 mins by fenton reaction method relative to control
[5] = Antioxidant activity assessed as hydroxyl radical scavenging activity preincubated for 20 mins followed by salicylic acid addition measured after 60 mins by fenton reaction method relative to control
[6] = Antioxidant activity assessed as inhibition of superoxide radical generation at 2.5 mg/ml after 4 mins by pyrogallol autoxidation method relative to control
[7] = Antioxidant activity assessed as inhibition of superoxide radical generation after 4 mins by pyrogallol autoxidation method
[8] = Antioxidant activity assessed as DPPH radical scavenging activity at 2.5 mg/ml after 30 mins by absorbance method relative to control

Compound | inhibition [1] | Activity [2] [%] | Activity [3] | Activity [4] [%] | Activity [5] | inhibition [6] [%] | inhibition [7] | Activity [8] [%]
O=C1O[C@H]([C@@H](O)CO)C(O)=C1O | Active | 96.8 | Active | 94.9 |  |  |  | 
OCOC1COC(S)(O[C@@H]2O[C@H](CO)[C@@H](O)[C@H](O)[C@H]2O)C1OCO (stereo not given in full) |  | 83.3 |  | 76.2 | Dose-dependent effect | 73.9 | Dose-dependent effect | 83.9
